Assay results as given in patent publication US10556898B2, “Indazolyl-1,2,4-thiadiazolamines and related compounds for inhibition of Rho-associated protein kinase and the treatment of disease” (Lycera Corporation, priority 2016, dated 2020).
Read-outs that look alike come from different tables or passages of the source.

Legend:
[1] = porcine model of IL-1 beta-induced coronary stenosis; cited from earlier work
[2] = rat stroke model; cited from earlier work
ROCK2 = target: T1, ROCK2 (Homo sapiens, UniProt O75116); test: Cell-Based Assay, ROCK2 (HAP1 knockout cells, phospho-MYPT1 Thr853 ELISA); settings: read-out: Results from Cell-Based Assay IC50 (μM) ROCK2
T1 construct: endogenous in cells; host or cells: HAP1 knockout cells

[3] = target: T2, GST-tagged human ROCK2 catalytic domain 1-553 (Homo sapiens, UniProt O75116); test: Isolated Enzyme Assay, ROCK2 (LANCE Ultra ULight-CREBtide FRET); type: biochemical; settings: isolated enzyme assay; 30 μM highest concentration tested; read-out: Results from Isolated Enzyme Assay IC50 (μM) ROCK2
T2 construct: GST-tagged human ROCK2 catalytic domain 1-553 from Carna Biosciences (Cat #01-110); purchased Carna Biosciences 01-110; host or cells: baculovirus expression system
Summary of the method: (§1)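 Baculovirus-expressed constitutively active ROCK1 or ROCK2 (2 nM) incubated 90 min at room temperature with 50 nM ULight-CREBtide and compound (0.5% DMSO) in Tris pH 7.5, MgCl2, EGTA, Tween-20, DTT. EDTA-stopped; phospho-substrate detected by Eu-anti-phospho-CREB TR-FRET after 60 min; IC50 by non-linear regression.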

[4] = target: T3, GST-tagged human ROCK1 catalytic domain 1-477 (Homo sapiens, UniProt Q13464); test: Isolated Enzyme Assay, ROCK1 (LANCE Ultra ULight-CREBtide FRET); type: biochemical; settings: isolated enzyme assay; 30 μM highest concentration tested; read-out: Results from Isolated Enzyme Assay IC50 (μM) ROCK1
T3 construct: human ROCK1 catalytic domain 1-477 from Carna Biosciences (cat #01-109); purchased Carna Biosciences 01-109; host or cells: baculovirus expression system
Summary of the method: as §1

ROCK1 = target: T4, ROCK1 (Homo sapiens, UniProt Q13464); test: Cell-Based Assay, ROCK1 (HAP1 knockout cells, phospho-MYPT1 Thr853 ELISA); settings: read-out: Results from Cell-Based Assay IC50 (μM) ROCK1
T4 construct: endogenous in cells; host or cells: HAP1 knockout cells
Description: Part II—Procedure for Determining ROCK Inhibition Ability of Test Compounds Using a Cell-Base Assay
The Cell-Based Assay for determining ROCK inhibition ability of test compounds utilized a genetically modified HAP1 cell line engineered to eliminate expression of either ROCK1 or ROCK2. In the procedure, HAP1 knockout cells are grown in Iscove's Modified Dulbecco's Medium that is additionally supplemented with 10% fetal bovine and 1x antibiotic-antimycotic mixture. Cells are plated in 96 well tissue culture plates at 1×10^5 cells/well (100 μL, of cells at 1×10^6/mL). Test compounds are solubilized in DMSO and diluted into the same media used to grow the cells. A 100 μL, aliquot of each compound dilution in media is added to each well containing the HAP1 cells and incubated at 37° C. for 30 minutes. Following compound incubation, the cells are pelleted by centrifugation at 1800 rpm for 5 minutes at 4° C. Media is removed from the cell pellet and the cells lysed and de-salted. An 80 μL, aliquot of each cell lysate is added to a single well of a 96-well high binding ELISA plate which has been pre-coated with a MYPT1 capture antibody and incubated at 4° C. overnight. The following day the ELISA plate is washed 4× with 0.05% Tween-20 in PBS. After washing, an anti-phospho-MYPT1 (Thr853) antibody is added and allowed to bind for 1 hour at room temperature. The wash step is repeated, and then an anti-rabbit HRP detection antibody is added and allowed to incubate at room temperature for 1 hour. The wash step is then repeated and 100 μL/well 1-Step™ Ultra TMB substrate is added to the ELISA plate and allowed to develop for approximately 5 minutes. The reaction is stopped by addition of H2SO4. Absorbance is read at 450 OD. Data is analyzed using GraphPad Prism software to calculate the 50% inhibitory concentration of test compound (IC50).

T2 sequence (O75116 1-553): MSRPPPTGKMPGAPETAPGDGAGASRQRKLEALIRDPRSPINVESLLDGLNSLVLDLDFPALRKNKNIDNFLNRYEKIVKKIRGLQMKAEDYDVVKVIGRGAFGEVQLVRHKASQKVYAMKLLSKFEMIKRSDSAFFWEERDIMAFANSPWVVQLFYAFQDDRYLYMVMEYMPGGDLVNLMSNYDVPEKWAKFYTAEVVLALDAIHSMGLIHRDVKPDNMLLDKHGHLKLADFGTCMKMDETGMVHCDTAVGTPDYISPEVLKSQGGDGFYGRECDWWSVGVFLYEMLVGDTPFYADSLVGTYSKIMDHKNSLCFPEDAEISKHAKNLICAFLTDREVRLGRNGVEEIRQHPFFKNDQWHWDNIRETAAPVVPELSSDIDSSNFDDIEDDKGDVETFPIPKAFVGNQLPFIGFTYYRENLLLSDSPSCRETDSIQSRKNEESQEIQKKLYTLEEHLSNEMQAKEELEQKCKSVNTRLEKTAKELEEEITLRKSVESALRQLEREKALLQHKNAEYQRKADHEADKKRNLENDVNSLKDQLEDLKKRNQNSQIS
T1 sequence (O75116 whole entry): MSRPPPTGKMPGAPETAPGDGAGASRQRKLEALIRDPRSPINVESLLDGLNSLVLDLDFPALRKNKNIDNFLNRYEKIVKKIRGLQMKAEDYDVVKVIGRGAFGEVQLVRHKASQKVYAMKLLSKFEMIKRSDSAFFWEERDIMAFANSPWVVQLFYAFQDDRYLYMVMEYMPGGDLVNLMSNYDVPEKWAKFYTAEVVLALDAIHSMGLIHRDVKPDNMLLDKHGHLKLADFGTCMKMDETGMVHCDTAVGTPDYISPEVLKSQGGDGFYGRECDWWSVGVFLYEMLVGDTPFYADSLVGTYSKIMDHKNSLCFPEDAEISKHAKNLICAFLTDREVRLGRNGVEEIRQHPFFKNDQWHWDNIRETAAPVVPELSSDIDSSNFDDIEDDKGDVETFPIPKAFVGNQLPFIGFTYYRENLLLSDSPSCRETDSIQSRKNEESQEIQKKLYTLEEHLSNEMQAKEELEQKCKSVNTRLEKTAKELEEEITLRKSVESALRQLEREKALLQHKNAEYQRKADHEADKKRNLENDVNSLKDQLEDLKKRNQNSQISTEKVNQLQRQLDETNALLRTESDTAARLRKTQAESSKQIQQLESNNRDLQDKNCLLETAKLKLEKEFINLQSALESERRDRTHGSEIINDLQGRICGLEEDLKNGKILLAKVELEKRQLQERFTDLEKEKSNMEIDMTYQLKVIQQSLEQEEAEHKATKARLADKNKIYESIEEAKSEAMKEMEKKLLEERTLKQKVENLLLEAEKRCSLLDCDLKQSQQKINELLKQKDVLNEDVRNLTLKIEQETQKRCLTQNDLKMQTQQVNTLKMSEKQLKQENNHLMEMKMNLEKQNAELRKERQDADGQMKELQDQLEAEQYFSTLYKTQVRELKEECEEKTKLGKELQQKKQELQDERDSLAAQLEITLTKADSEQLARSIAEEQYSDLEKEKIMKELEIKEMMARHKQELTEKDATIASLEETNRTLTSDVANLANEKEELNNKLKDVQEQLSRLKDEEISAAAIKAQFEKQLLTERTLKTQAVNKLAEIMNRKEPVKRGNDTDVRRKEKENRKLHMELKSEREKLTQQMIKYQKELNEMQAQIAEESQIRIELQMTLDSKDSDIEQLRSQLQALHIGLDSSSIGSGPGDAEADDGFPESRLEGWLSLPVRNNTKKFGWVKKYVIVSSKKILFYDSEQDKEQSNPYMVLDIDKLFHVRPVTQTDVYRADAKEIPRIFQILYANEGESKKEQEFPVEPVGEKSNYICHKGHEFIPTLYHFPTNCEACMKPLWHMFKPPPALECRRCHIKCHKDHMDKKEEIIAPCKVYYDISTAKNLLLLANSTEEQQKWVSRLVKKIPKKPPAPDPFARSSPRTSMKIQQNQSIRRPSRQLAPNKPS
T3 sequence (Q13464 1-477): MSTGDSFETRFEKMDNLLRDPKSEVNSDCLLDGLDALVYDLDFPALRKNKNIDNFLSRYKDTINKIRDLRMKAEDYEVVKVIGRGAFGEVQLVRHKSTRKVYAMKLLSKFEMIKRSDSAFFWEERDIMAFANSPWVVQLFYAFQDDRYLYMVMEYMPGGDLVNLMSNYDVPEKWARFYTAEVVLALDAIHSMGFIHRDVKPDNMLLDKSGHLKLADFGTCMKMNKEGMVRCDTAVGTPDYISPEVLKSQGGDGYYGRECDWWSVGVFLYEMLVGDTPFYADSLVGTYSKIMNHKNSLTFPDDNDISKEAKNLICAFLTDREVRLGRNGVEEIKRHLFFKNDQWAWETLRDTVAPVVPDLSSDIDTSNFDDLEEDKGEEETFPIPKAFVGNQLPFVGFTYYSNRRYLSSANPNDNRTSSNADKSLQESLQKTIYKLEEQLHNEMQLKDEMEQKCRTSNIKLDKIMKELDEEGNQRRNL
T4 sequence (Q13464 whole entry): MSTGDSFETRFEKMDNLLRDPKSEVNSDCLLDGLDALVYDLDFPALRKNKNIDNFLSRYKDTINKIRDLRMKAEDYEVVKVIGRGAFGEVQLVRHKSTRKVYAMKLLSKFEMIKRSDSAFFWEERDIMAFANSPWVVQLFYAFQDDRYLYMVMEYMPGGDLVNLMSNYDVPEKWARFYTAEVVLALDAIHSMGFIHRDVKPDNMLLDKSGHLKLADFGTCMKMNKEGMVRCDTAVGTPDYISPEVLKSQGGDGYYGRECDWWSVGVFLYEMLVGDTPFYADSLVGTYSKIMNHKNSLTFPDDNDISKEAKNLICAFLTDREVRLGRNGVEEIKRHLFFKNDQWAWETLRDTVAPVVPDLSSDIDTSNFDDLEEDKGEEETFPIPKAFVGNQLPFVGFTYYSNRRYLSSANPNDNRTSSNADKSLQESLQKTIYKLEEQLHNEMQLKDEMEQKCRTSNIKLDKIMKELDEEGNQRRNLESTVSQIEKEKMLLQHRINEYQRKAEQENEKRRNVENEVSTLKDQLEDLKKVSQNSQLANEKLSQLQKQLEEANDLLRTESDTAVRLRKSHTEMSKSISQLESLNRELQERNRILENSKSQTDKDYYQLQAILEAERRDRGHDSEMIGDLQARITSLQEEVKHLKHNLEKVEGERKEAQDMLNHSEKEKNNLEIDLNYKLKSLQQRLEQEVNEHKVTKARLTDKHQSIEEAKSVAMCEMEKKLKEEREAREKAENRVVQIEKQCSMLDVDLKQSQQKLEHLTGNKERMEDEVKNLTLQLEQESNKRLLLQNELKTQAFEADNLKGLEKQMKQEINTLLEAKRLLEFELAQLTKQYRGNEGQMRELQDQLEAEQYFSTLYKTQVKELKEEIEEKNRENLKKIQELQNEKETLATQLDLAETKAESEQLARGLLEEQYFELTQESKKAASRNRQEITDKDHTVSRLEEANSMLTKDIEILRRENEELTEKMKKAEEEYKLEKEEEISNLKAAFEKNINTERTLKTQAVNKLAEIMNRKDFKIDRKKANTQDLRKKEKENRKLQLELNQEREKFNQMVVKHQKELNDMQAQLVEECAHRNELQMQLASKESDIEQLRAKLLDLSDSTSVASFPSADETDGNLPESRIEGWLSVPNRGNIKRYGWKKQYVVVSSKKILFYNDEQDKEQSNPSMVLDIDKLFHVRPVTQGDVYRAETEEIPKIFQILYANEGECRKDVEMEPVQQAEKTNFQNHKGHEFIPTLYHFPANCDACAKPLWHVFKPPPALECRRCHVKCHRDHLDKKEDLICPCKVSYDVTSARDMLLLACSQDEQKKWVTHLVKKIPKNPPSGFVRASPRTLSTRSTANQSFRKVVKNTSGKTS

## O=S(=O)(c1cccc2cnccc12)N1CCCNCC1 [fasudil]
[1]
  coronary stenosis: progressively reduce coronary stenosis
[2]
  infarct size and neurologic deficit: reduce both the infarct size and neurologic deficit

## CN1CCC(NC(=O)c2cc(-c3nsc(Nc4ccc5[nH]ncc5c4Cl)n3)ccc2F)CC1 [IV-46]
ROCK2; class symbols
  IC50: < 1 µM
[3]
  IC50: < 1 µM
[4]
  IC50: < 1 µM
ROCK1; numeric bound
  IC50: > 10 µM

## CNC(=O)c1cccc(-c2nsc(Nc3ccc4[nH]ncc4c3Cl)n2)c1 [IV-107]
ROCK2; class symbols
  IC50: < 1 µM
[3]
  IC50: < 1 µM
[4]
  IC50: < 1 µM
ROCK1; numeric bound
  IC50: > 10 µM

## CNC(=O)c1cc(-c2nsc(Nc3ccc4[nH]ncc4c3Cl)n2)ccc1F [IV-49]
ROCK2; class symbols
  IC50: < 1 µM
[3]
  IC50: < 1 µM
[4]
  IC50: < 1 µM
ROCK1; numeric bound
  IC50: > 10 µM

## Cc1cc(NC(=O)c2cn(C)cn2)cc(-c2nsc(Nc3ccc4[nH]ncc4c3Cl)n2)n1 [IV-26]
ROCK2; class symbols
  IC50: < 1 µM
[3]
  IC50: < 1 µM
[4]
  IC50: < 1 µM
ROCK1; numeric bound
  IC50: > 10 µM

## Cn1cc(C(=O)Nc2cccc(-c3nsc(Nc4ccc5[nH]ncc5c4Cl)n3)c2)c(C(F)(F)F)n1 [IV-72]
ROCK2; class symbols
  IC50: < 1 µM
[3]
  IC50: < 1 µM
[4]
  IC50: < 1 µM
ROCK1; class symbols
  IC50: 1 to 15 µM

## Cc1coc(-c2cccc(-c3nsc(Nc4ccc5[nH]ncc5c4F)n3)c2)n1 [IV-15]
ROCK2; class symbols
  IC50: < 1 µM
[3]
  IC50: < 1 µM
[4]
  IC50: < 1 µM
ROCK1; numeric bound
  IC50: > 10 µM

## CNC(=O)c1cc(-c2nsc(Nc3ccc4[nH]ncc4c3Cl)n2)cn(C)c1=O [IV-2]
ROCK2; class symbols
  IC50: < 1 µM
[3]
  IC50: < 1 µM
[4]
  IC50: < 1 µM
ROCK1; numeric bound
  IC50: > 10 µM

## Cn1ccc(C(=O)Nc2cccc(-c3nsc(Nc4ccc5[nH]ncc5c4Cl)n3)c2)n1 [IV-77]
ROCK2; class symbols
  IC50: < 1 µM
[3]
  IC50: < 1 µM
[4]
  IC50: < 1 µM
ROCK1; numeric bound
  IC50: > 10 µM

## C[C@@H]1CN(c2cccc(-c3nsc(Nc4ccc5[nH]ncc5c4Cl)n3)c2)C(=O)O1 [IV-31]
ROCK2; class symbols
  IC50: < 1 µM
[3]
  IC50: < 1 µM
[4]
  IC50: < 1 µM
ROCK1; class symbols
  IC50: 1 to 15 µM

## Cc1cc(NC(=O)c2ccnn2C)cc(-c2nsc(Nc3ccc4[nH]ncc4c3Cl)n2)n1 [IV-13]
ROCK2; numeric bound
  IC50: > 10 µM
[3]
  IC50: < 1 µM
[4]
  IC50: < 1 µM
ROCK1; numeric bound
  IC50: > 10 µM

## CC(C)NC(=O)c1cc(-c2nsc(Nc3ccc4[nH]ncc4c3Cl)n2)ccc1F [IV-14]
ROCK2; class symbols
  IC50: < 1 µM
[3]
  IC50: < 1 µM
[4]
  IC50: < 1 µM
ROCK1; class symbols
  IC50: 1 to 15 µM

## O=C(NC1CCOCC1)c1cc(-c2nsc(Nc3ccc4[nH]ncc4c3Cl)n2)ccc1F [IV-47]
ROCK2; class symbols
  IC50: < 1 µM
[3]
  IC50: < 1 µM
[4]
  IC50: < 1 µM
ROCK1; class symbols
  IC50: 1 to 15 µM

## C[C@H]1CN(c2cccc(-c3nsc(Nc4ccc5[nH]ncc5c4Cl)n3)c2)C(=O)O1 [IV-32]
ROCK2; class symbols
  IC50: < 1 µM
[3]
  IC50: < 1 µM
[4]
  IC50: < 1 µM
ROCK1; class symbols
  IC50: 1 to 15 µM
